Laboratory results: patent US8349883B2, “Hydroxamate-based inhibitors of deacetylases B” (Novartis AG, priority 2008, dated 2013)

Columns and labels:
HDAC-1 = target: T1, HDAC-1 (Homo sapiens, UniProt Q13547); assay: HDAC inhibition assay (purified GST-HDAC protein); format: biochemical
T1 construct: made in house; host or cells: Sf9 or Sf21 insect cells (baculovirus, donor vector pFB-GSTX3)

HCT116 = HCT116 IC50; format: cell-based; conditions: Homo sapiens, HCT-116

T1 sequence (Q13547 whole entry, species assumed): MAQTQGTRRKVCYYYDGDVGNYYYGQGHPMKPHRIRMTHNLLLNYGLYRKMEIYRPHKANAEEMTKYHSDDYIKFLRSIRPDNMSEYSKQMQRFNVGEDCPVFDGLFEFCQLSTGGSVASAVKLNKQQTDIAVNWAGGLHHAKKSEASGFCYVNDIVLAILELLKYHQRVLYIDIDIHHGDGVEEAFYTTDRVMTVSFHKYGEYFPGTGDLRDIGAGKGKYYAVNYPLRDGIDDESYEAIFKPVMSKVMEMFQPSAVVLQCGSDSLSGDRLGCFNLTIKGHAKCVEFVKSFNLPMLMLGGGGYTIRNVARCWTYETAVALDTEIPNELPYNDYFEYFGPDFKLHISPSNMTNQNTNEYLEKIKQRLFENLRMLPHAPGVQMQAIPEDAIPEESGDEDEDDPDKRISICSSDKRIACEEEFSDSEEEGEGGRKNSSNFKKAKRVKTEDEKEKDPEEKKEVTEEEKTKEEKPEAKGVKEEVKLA

SMILES	IC50 (HDAC-1)	IC50 (HCT116)
Cc1c(CCN2CCC[C@H]2c2ccc(/C=C/C(=O)NO)cc2)c(=O)n(-c2ccccc2)n1C [Compound 116, (E)-3-(4-{(S)-1-[2-(1,5-Dimethyl-3-oxo-2-phenyl-2,3-dihydro-1H-pyrazol-4-yl)-ethyl]-pyrrolidin-2-yl}-phenyl)-N-hydroxy-acrylamide]	20 nM	49 nM
CC(C)(O)c1nn2ccccc2c1CCN1CCC[C@@H]1c1ccc(CCC(=O)NO)cc1 [Compound 120, N-Hydroxy-3-[4-((R)-1-{2-[2-(1-hydroxy-1-methyl-ethyl)-pyrazolo[1,5-a]pyridin-3-yl]-ethyl}-pyrrolidin-2-yl)-phenyl]-propionamide]	75 nM	510 nM
O=C(CCc1ccc([C@H]2CCCN2CCc2cnn3ccccc23)cc1)NO [Compound 121, N-Hydroxy-3-{4-[(R)-1-(2-pyrazolo[1,5-a]pyridin-3-yl-ethyl)-pyrrolidin-2-yl]-phenyl}-propionamide]	31 nM	180 nM
